According to US11998619B2, “Compound, antiinflammatory drug comprising the compound and cyclooxygenase-2 inhibitor comprising the compound” (priority 2018, dated 2024):

Assays:
COX-2 [1] = assay: Western blotting of COX-2 expression after LPS treatment; format: cell-based; conditions: Western blot, FIG. 4
COX-2 [2] = assay: Immunofluorescence of COX-2 in LPS-treated cells; conditions: FIG. 3
Protocol: Anti-inflammatory properties were evaluated based on in vitro experiments. Specifically, cells were treated with lipopolysaccharide (LPS) as an inflammation-inducing substance, thereby to induce an inflammatory reaction. […] Then, immunofluorescence images thereof were taken to identify COX-2 inhibitory ability thereof in the cells.
The green fluorescence indicates the presence of COX-2 which is induced by an inflammatory reaction in cells via treatment with LPS.

[3] = test system: MCAO-R stroke animal model; assay: Cerebral infarction in MCAO-R stroke animal model (TTC staining); format: in vivo, Sprague Dawley (SD) rats; conditions: 24 hours after reperfusion; FIG. 5B
cyclooxygenase-2 (COX-2) = assay: Western blot of COX-2 in tissue at the cerebral infarction site, MCAO-R model; format: in vivo, Sprague Dawley (SD) rats; conditions: FIG. 5C

| Compound | COX-2 expression inhibition (COX-2 band) (COX-2 [1]) | COX-2 inhibitory ability (green fluorescence, COX-2 positive cells) (COX-2 [2]) | inhibition of cerebral infarction [3] | inhibition of COX-2 protein amount at cerebral infarction site (cyclooxygenase-2 (COX-2)) |
| --- | --- | --- | --- | --- |
| CC1=C(CC(=O)O)c2cc(F)ccc2/C1=C\c1ccc([S+](C)[O-])cc1 (stereo not shown) [sulindac] | has COX-2 inhibition ability | excellent COX-2 inhibition ability |  |  |
| O=C(O)CCC(=O)c1ccc(-c2ccccc2)cc1 [fenbufen] | do not achieve COX-2 inhibition effect |  |  |  |
| O=C(O)c1cc(-c2ccc(F)cc2F)ccc1O [diflunisal] | do not achieve COX-2 inhibition effect | slightly lower than that in cells (LPS) treated with only LPS | significantly inhibit the cerebral infarction | exhibit inhibition of COX-2 activity |
